According to patent EP3807270B1, “NOVEL HETEROARYL HETEROCYCLYL COMPOUNDS FOR THE TREATMENT OF AUTOIMMUNE DISEASE” (F. Hoffmann-La Roche AG, priority 2018, dated 2019):

What was measured:
[1] = Human microsome stability assay; format: in vitro ADME; details: 1 µM test compound, 0.5 mg/mL liver microsomal protein, 37 °C
Method in brief: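 Test compound at 1 µM was incubated with human liver microsomes (0.5 mg/mL protein) and an NADPH-regenerating system in 100 mM potassium phosphate, pH 7.4, at 37 °C. Samples were taken at 0–30 min and quenched with acetonitrile. Remaining compound was quantified by LC-MS/MS, with no-NADPH controls.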

hTLR7 = biological target: T1, hTLR7 (Homo sapiens, UniProt Q9NYK1); assay: HEK293-Blue-hTLR-7 cells assay (SEAP reporter, R848 stimulation); format: cell-based; parameters: host or cells: HEK293 (HEK-Blue); details: HEK293-Blue-hTLR7 cells, R848, 20 hrs; read-out: HEK/hTLR7 IC50
T1 sequence (Q9NYK1 27-1049): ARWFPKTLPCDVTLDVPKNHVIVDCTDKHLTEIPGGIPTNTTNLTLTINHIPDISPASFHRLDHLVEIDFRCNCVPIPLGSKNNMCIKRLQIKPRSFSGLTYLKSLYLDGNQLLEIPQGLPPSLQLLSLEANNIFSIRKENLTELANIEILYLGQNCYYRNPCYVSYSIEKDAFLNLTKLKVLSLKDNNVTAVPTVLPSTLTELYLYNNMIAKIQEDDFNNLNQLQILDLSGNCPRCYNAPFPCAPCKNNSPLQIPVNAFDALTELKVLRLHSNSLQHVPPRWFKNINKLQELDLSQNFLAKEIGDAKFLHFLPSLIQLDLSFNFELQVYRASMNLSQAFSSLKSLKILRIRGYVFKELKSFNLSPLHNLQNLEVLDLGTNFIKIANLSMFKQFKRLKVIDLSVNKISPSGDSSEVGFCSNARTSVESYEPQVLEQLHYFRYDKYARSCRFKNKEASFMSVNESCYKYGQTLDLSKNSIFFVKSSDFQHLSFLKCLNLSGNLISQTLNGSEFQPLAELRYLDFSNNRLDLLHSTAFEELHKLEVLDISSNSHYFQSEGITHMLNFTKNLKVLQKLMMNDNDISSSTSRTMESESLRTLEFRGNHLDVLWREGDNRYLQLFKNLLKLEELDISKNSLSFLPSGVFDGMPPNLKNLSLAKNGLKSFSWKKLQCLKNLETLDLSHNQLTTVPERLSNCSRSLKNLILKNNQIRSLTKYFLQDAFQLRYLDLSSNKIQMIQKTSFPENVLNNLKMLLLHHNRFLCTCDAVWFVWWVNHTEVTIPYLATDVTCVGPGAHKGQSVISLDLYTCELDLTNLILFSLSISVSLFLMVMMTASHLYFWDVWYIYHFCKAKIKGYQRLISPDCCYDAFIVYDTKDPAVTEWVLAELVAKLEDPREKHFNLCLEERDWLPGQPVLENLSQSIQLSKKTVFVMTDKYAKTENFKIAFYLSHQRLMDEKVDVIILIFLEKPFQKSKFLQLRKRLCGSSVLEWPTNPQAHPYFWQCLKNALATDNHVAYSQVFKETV
Method in brief: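 HEK293-Blue cells stably expressing human TLR7 with an NF-κB/AP-1-driven SEAP reporter were treated with serially diluted compound (1% DMSO final) plus R848 for 20 h at 37 °C. Supernatant SEAP activity was measured with QUANTI-Blue substrate after 2 h at 37 °C, with absorbance read at 620-655 nm.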

With `C[C@@H]1CN(c2ccc(C#N)c3nccnc23)C[C@H](CN2CCN(c3cc4c(cn3)[C@@H](C)NCC4)CC2)O1` (single isomer, unassigned) [Example 86] the “Clearance of Human microsome” value [1] was 7.69 mL/min/kg and the IC50 (hTLR7) was 6 nM.
With `C[C@@H]1CN(c2ccc(C#N)c3nccnc23)C[C@H](CN2CCN(c3cc4c(cn3)CCN[C@@H]4C)CC2)O1` (single isomer, unassigned) [Example 87] the “Clearance of Human microsome” value [1] was 8.91 mL/min/kg and the IC50 (hTLR7) was 4 nM.
An IC50 (hTLR7) of 6 nM was found for `C[C@@H]1CN(c2ccc(C#N)c3nccnc23)C[C@H](CN2CCN(c3cc4c(cn3)CCN[C@H]4C)CC2)O1` (single isomer, unassigned) [Example 88] in this work.
An IC50 (hTLR7) of 4 nM was found for `[2H]c1nc2c(C#N)ccc(N3C[C@H](CN4CCN(c5cc6c(cn5)[C@H](C)NCC6)CC4)O[C@H](C)C3)c2nc1[2H]` (single isomer, unassigned) [Example 94] in this work.
In the case of `[2H]c1nc2c(C#N)ccc(N3C[C@H](CN4CCN(c5cc6c(cn5)[C@@H](C)NCC6)CC4)O[C@H](C)C3)c2nc1[2H]` (single isomer, unassigned) [Example 95], the “Clearance of Human microsome” value [1] is reported as 7.13 mL/min/kg and the IC50 (hTLR7) is reported as 5 nM.
With `[2H]c1nc2c(C#N)ccc(N3C[C@H](CN4CCN(c5ccc6c(n5)CN[C@H]6C)CC4)O[C@H](C)C3)c2nc1[2H]` (single isomer, unassigned) [Example 96] the “Clearance of Human microsome” value [1] was 6.23 mL/min/kg and the IC50 (hTLR7) was 4 nM.
With `[2H]c1nc2c(C#N)ccc(N3C[C@H](CN4CCN(c5ccc6c(n5)CN[C@@H]6C)CC4)O[C@H](C)C3)c2nc1[2H]` (single isomer, unassigned) [Example 97] the “Clearance of Human microsome” value [1] was 6.15 mL/min/kg and the IC50 (hTLR7) was 7 nM.
With `[2H]c1ccc2c(N3C[C@H](CN4CCN(c5ccc6c(n5)CN[C@@H]6C)CC4)O[C@H](C)C3)ccc(C#N)c2n1` (single isomer, unassigned) [Example 98] the “Clearance of Human microsome” value [1] was 8.02 mL/min/kg and the IC50 (hTLR7) was 8 nM.
In the case of `[2H]c1ccc2c(N3C[C@H](CN4CCN(c5ccc6c(n5)CN[C@H]6C)CC4)O[C@H](C)C3)ccc(C#N)c2n1` (single isomer, unassigned) [Example 99], the “Clearance of Human microsome” value [1] is reported as 6.32 mL/min/kg and the IC50 (hTLR7) is reported as 11 nM.
For `C[C@@H]1CN(c2ccc(C#N)c3ncccc23)C[C@H](CN2CCN(c3ccc4c(c3)CNCC4)CC2)O1` [Example 9, 5-[(2R,6S)-2-methyl-6-[[4-(1,2,3,4-tetrahydroisoquinolin-7-yl)piperazin-1-yl]methyl]morpholin-4-yl]quinoline-8-carbonitrile], the “Clearance of Human microsome” value [1] was 6.74 mL/min/kg and the IC50 (hTLR7) was 42 nM.
In the case of `C[C@@H]1CN(c2ccc(C#N)c3ncccc23)C[C@H](CN2CCN(c3cnc4c(c3)CNC4)CC2)O1` [Example 10, 5-[(2S,6R)-2-[[4-(6,7-dihydro-5H-pyrrolo[3,4-b]pyridin-3-yl)piperazin-1-yl]methyl]-6-methyl-morpholin-4-yl] quinoline-8-carbonitrile], the “Clearance of Human microsome” value [1] is reported as 8.61 mL/min/kg and the IC50 (hTLR7) is reported as 35 nM.
